{"source": "patent US20240002441A1", "about": "“PEPTIDES AND USES THEREOF IN MODULATION OF AMYLOID-BETA PROTEIN DEGRADING PROTEASES” (priority 2020, published 2024)", "format_in_all_cases": "biochemical", "key": {"NEP [1]": {"biological_target": "T1, NEP (Homo sapiens, UniProt P08473)", "T1 construct": "purchased R & D systems 1182-ZNC-010", "T1 sequence (P08473 whole entry)": "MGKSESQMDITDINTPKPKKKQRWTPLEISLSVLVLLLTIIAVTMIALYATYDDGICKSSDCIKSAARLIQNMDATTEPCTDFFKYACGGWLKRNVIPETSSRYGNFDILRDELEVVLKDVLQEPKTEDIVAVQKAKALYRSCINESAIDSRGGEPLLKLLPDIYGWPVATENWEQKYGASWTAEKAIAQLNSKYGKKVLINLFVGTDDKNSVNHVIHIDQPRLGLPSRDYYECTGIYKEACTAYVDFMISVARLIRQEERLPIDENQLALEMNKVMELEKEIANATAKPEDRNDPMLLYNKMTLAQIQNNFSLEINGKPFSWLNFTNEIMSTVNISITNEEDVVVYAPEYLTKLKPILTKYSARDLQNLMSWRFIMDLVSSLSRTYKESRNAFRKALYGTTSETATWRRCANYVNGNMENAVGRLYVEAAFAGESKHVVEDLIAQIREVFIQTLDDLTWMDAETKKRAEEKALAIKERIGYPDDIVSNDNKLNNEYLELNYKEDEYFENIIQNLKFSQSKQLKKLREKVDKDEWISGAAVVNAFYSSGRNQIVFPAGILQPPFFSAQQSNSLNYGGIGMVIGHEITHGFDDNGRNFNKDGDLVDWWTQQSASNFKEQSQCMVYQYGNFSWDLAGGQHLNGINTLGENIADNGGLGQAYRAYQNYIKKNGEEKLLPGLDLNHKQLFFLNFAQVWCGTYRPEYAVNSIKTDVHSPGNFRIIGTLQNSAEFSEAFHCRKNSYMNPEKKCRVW", "assay": "NEP enzyme kinetics study with QFS (Example 5)", "details": "NEP QFS 0-120 μM; pre-incubation 1 h at 37° C.", "protocol": "(§1) Plate reader-based enzyme assays were performed using a quenched fluorescent substrate (QFS) in a 96-well format using a SpectraMAX M4 Microplate reader (Molecular Devices). The increase in fluorescence following addition of QFS (40 μM) was taken as evidence of enzyme activity. Fluorescence was monitored over 2 h at 37° C. using κEx=320 nm and λEm=405 nm. Assays were conducted in black 96-well plates. Specific enzyme activity was expressed as a rate of substrate cleavage calculated using a standard curve of 7-methoxy-coumarin-4-acetic acid.\nIn all plate reader-based enzyme assays using QFS, the reaction rate (μmol of substrate cleaved/min) was calculated using linear regression analysis (GraphPad Prism software version 8.01). The reaction rates calculated were used to generate the enzyme kinetic parameters Vmax and Km through non-linear regression analysis (GraphPad Prism software, version 8.01; Michaelis-Menten equation). Where indicated, enzyme activity in the presence of peptide was expressed as a % of the enzyme alone. Data were expressed as mean±SEM and statistical significance was determined using t-tests or one-way ANOVAs followed by Tukey's post-hoc test. P<0.05 was considered as statistically significant. In all assays conducted using 96-well plates, the reaction mixtures in each well were considered an independent experiment. […]"}, "NEP [2]": {"biological_target": "T1, NEP", "assay": "QFS assay of Aβ-degrading enzymes: NEP (Example 6)", "protocol": "as §1\n(§2) In all plate reader-based enzyme assays using QFS, the reaction rate (μmol of substrate cleaved/min) was calculated using linear regression analysis (GraphPad Prism software version 8.01). The reaction rates calculated were used to generate the enzyme kinetic parameters Vmax and Km through non-linear regression analysis (GraphPad Prism software, version 8.01; Michaelis-Menten equation). Where indicated, enzyme activity in the presence of peptide was expressed as a % of the enzyme alone. Data were expressed as mean±SEM and statistical significance was determined using t-tests or one-way ANOVAs followed by Tukey's post-hoc test. P<0.05 was considered as statistically significant. In all assays conducted using 96-well plates, the reaction mixtures in each well were considered an independent experiment.\n(§3) SEQ ID NO:2 was assessed in a QFS assay against enzymes NEP, ECE1, ECE2, ACE1, ACE2, IDE and MMP-2 using the method in Example 2 and the following procedure. NEP, ACE1, ECE2 (0.05 ng/μL), ACE2, IDE (0.10 ng/μL), and ECE1 (6.4 ng/μL) were incubated with SEQ ID NO:2 (0.9-26 μM) or scrambled control (9 μM) for 1 h at 37° C. Prior to use, MMP2 (0.50 ng/μL) was activated using p-aminophenylmercuric acetate to a final concentration of 100 μM for 1 h at 37° C. Following activation, MMP2 was incubated with SEQ ID NO:2 for 1 h at 37° C. before adding the appropriate QFS."}, "ACE1": {"biological_target": "T2, ACE1 (Homo sapiens, UniProt P12821)", "T2 construct": "purchased Sigma Aldrich SRP6270-10UG", "T2 sequence (P12821 30-1306)": "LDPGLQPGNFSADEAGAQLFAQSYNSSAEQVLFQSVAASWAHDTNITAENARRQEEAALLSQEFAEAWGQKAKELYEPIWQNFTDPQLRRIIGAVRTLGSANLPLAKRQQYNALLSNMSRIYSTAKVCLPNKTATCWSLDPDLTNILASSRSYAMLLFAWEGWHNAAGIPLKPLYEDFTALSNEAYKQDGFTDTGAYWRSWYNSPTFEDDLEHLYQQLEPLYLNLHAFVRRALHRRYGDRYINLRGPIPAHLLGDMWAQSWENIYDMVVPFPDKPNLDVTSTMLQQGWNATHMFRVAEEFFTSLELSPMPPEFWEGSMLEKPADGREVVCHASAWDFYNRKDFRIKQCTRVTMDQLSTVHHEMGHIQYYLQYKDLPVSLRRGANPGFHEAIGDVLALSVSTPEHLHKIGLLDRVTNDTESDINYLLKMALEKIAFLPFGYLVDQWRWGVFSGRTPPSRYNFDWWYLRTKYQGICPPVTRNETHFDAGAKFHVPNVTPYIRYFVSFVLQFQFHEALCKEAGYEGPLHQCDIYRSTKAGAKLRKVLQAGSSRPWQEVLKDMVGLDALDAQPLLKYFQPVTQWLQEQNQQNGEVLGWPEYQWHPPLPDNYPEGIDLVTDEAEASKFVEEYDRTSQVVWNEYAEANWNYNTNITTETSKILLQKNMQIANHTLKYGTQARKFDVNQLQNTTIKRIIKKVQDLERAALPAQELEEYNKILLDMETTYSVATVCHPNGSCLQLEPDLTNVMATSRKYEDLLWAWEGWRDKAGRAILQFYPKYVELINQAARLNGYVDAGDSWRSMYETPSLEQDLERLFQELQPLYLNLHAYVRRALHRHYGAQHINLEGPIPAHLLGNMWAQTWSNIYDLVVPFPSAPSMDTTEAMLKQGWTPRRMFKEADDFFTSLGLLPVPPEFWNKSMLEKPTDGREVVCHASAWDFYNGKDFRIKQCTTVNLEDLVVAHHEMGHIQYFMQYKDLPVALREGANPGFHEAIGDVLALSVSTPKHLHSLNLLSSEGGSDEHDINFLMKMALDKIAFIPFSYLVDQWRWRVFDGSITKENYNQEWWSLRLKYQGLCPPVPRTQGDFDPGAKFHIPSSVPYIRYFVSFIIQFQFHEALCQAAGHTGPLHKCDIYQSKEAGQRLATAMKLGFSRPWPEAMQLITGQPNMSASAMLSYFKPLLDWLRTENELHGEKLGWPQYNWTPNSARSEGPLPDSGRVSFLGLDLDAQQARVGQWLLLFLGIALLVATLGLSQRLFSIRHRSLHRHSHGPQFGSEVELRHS", "assay": "QFS assay of Aβ-degrading enzymes: ACE1 (Example 6)", "protocol": "as §1, §2, §3"}, "NEP [3]": {"biological_target": "T1, NEP", "assay": "Cleavage of synthetic Aβ40 by NEP, LCMS (Example 7)", "details": "peptide 9 μM", "protocol": "Synthetic Aβ40 (0.10 μg/μL) was added to a reaction mixture containing NEP (0.05 ng/μL) pre-incubated with SEQ ID NO:2 or scrambled control (9 μM) for 1 h at 37° C. Synthetic Aβ42 (0.05 μg/μL) was added to a reaction mixture containing NEP (0.15 ng/μL) preincubated with either scrambled control or SEQ ID NO:2 (9 μM) for 1 h at 37° C. Samples containing enzyme alone had only NEP buffer (Table 2). The cleavage reaction was allowed to continue in a thermomixer at 37° C. Aliquots of equal volume were taken over 24 h. Aliquots were immediately acidified with 0.1% trifluoroacetic acid (TFA) to terminate enzyme activity and snap frozen in dry ice. Samples were stored at −80° C. until analysed by LCMS.\n(§4) Samples were analysed by LC-MS/MS using a quadrupole TOF mass spectrometer (MicroTOFq, Bruker Daltonics, Bremen, Germany) coupled online with a 1200 series nano-HPLC (Agilent technologies, Santa Clara, CA, USA). Samples were injected onto a zorbax 300SB reversed phase trap column with 95% solvent A (0.1% formic acid) at a flow rate of 10 μL/minute. The peptides were eluted over a 10-min gradient to 70% solvent B (80% acetonitrile, 0.1% formic acid) and separated on a 15-cm, 75-μmID zorbax 300SB nanocolumn. The eluent was nebulised and ionised using the Bruker nano-ESI source with a capillary voltage of 4500 V, dry gas at 180° C., flow rate of 5 L/minute and nebuliser gas pressure at 300 mbar. The MS acquisition was in selected ion monitoring mode after selected ion extraction of the MS spectra. Prior to analysis, the qTOF mass spectrometer was calibrated using a 1:50 dilution tuning mix (Agilent technologies, Santa Clara, CA, USA). Data from MS run were processed in Skyline version 19.1.0.193 (Uni. Of Washington, WA, USA) to perform ion chromatogram extractions and peak integrations."}, "ACE2": {"biological_target": "T3, ACE2 (Homo sapiens, UniProt Q9BYF1)", "T3 construct": "purchased R & D systems 933-ZN-010", "T3 sequence (Q9BYF1 18-805)": "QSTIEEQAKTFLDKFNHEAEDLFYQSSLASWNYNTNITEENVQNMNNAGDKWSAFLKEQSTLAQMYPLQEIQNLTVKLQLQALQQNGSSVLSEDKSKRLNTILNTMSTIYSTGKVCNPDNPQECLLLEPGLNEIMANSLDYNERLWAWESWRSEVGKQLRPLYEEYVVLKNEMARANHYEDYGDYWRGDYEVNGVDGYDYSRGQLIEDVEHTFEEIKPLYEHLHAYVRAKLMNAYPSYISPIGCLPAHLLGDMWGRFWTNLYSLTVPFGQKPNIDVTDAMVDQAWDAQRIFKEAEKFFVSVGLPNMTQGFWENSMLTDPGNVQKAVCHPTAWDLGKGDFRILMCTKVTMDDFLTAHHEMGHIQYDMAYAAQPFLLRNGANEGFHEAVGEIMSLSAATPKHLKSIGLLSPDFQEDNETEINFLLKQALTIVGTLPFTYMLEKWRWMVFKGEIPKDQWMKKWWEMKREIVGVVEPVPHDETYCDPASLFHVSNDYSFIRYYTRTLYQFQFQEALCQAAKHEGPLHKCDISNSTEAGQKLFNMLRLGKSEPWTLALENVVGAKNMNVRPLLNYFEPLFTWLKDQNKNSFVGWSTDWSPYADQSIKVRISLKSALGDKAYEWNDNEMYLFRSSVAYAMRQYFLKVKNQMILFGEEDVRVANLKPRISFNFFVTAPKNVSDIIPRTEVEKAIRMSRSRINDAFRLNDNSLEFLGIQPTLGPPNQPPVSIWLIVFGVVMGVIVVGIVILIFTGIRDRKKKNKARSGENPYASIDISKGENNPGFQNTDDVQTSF", "assay": "Cleavage of synthetic Ang II to Ang 1-7 by ACE2, LCMS (Example 8)", "details": "rhACE2 0.1 ng/μL, peptide 1.7 μM, Ang II 0.02 μg/μL", "protocol": "as §4\nrhACE2 (0.1 ng/μL) was incubated with SEQ ID NO:2 (1.7 μM) for 1 h at 37° C. Ang II (0.02 μg/μL) was then added to the reaction mixture. Aliquots of equal volume were collected at 0, 3, 6 and 24 h. […] The samples were analysed by LC-MS/MS using the method in Example 7."}}, "data": [{"substance": "H-SLFELGKMIL-NH2 [SEQ ID NO:2, H2N-SLFELGKMIL-NH2]", "values": [{"measurement": "vmax of rhNEP in the presence of peptide", "setting": "NEP [1]", "result": "0.035±0.002 μmol substrate cleaved/min"}, {"measurement": "submaximal concentration against NEP", "setting": "NEP [2]", "result": 9, "unit": "µM"}, {"measurement": "NEP activity compared with respective enzyme alone", "setting": "NEP [2]; peptide 2 μM (FIG. 2c)", "result": "significantly increased"}, {"measurement": "activity of NEP as % of enzyme alone controls", "setting": "NEP [2]; peptide 9 μM", "result": 380, "unit": "%"}, {"measurement": "NEP activity, concentration dependence", "setting": "NEP [2]; peptide 0.9-26 μM", "result": "increased the activity"}, {"measurement": "ACE1 activity compared with respective enzyme alone", "setting": "ACE1; peptide 2 μM (FIG. 2c)", "result": "significantly increased"}, {"measurement": "ACE1 activity compared with respective enzyme alone", "setting": "ACE1; peptide 9 μM, significantly less compared with ACE2 and NEP", "result": "significantly higher"}, {"measurement": "ACE1 activity, concentration dependence", "setting": "ACE1; peptide 0.9-26 μM", "result": "increased the activity"}, {"measurement": "decrease in Aβ1-21 peak area over 4-20 h", "setting": "NEP [3]; Aβ40 cleavage", "result": "7.5×10^7±1.3×10^7 arbitrary units"}, {"measurement": "levels of Aβ1-21 (peak area) at 4 h", "setting": "NEP [3]; Aβ40 cleavage, 4 h", "result": "7.9×10^7±1.3×10^7 arbitrary units"}, {"measurement": "levels of Aβ1-21 (peak area) at 24 h", "setting": "NEP [3]; Aβ40 cleavage, 24 h", "result": "4.1×10^6±4.8×10^5 arbitrary units"}, {"measurement": "peak area corresponding to Aβ1-12 after 24 h", "setting": "NEP [3]; Aβ40 cleavage, 24 h", "result": "1.3×10^8±7.9×10^6 arbitrary units"}, {"measurement": "time at which breakdown of Aβ40 was complete", "setting": "NEP [3]; NEP 0.05 ng/μL", "result": 4, "unit": "h"}, {"measurement": "amount of Aβ40 remaining after 4 h (peak area)", "setting": "NEP [3]; NEP 0.05 ng/μL, Aβ40 0.10 μg/μL, 4 h", "result": "1.3×10^6±2.7×10^5 arbitrary units"}, {"measurement": "amount of Aβ40 remaining after 24 h, SEQ ID NO:2 versus scrambled control", "setting": "NEP [3]; 24 h", "result": "no significant difference"}, {"measurement": "production of Ang 1-7", "setting": "ACE2", "result": "165±12 % of ACE2 alone"}, {"measurement": "ACE2-mediated breakdown of Ang II over 24 h, decrease in peak area", "setting": "ACE2; 24 h", "result": "83±5 % of initial"}]}]}
